The values below come from ChEMBL document CHEMBL1146449, “Trypanocidal flavonoids from Trixis vauthieri” (1997).

Holding throughout (type): functional
Holding throughout (design): scale not given: the % may be the effect or the level left

Experiment [1] deals with Trypanosoma cruzi. Briefly: Trypanocidal activity against Trypanosoma cruzi Y strain trypomastigotes infected in Swiss albino mouse blood assessed as reduction of parasitemia at 1000 ug/mL after 24 hrs relative to control.
Experiment [2] concerns Trypanosoma cruzi. Briefly: Trypanocidal activity against Trypanosoma cruzi Y strain trypomastigotes infected in Swiss albino mouse blood assessed as reduction of parasitemia at 31 ug/mL after 24 hrs relative to control.
In experiment [3] the test system is Trypanosoma cruzi. Briefly: Trypanocidal activity against Trypanosoma cruzi Y strain trypomastigotes infected in Swiss albino mouse blood assessed as reduction of parasitemia at 500 ug/mL after 24 hrs relative to control.

`COc1cc(O)c2c(c1)OC(c1ccc(O)cc1)C(O)C2=O` (stereo not given): the Activity in the experiment with Trypanosoma cruzi [1] came out at 0%. On the same count and under the same terms, the figure for `COc1c(OC)c(O)c2c(=O)c(OC)c(-c3ccc(O)cc3)oc2c1OC` [CALYCOPTERIN] is 0%. On to `CN(C)c1ccc(C(=C2C=CC(=[N+](C)C)C=C2)c2ccc(N(C)C)cc2)cc1.[Cl-]` [GENTIAN VIOLET], for which the Activity in the experiment on Trypanosoma cruzi [2] is listed as 50%. For the compound `COc1cc2oc(-c3ccc(O)cc3)c(OC)c(=O)c2c(O)c1OC` [PENDULETIN], the Activity in the experiment with Trypanosoma cruzi [3] amounted to 86%. In the case of `COc1cc(O)c2c(c1)O[C@H](c1ccc(O)cc1)CC2=O` [SAKURANETIN], the Activity in the experiment with Trypanosoma cruzi [3] was found to be 100%.
